Patent US7741350B1 (Cara Therapeutics, Inc., priority 2009, dated 2010)
pEC50: −log10 of the molar value.

What was measured:
[1] = biological target: human CB1 receptor (hCB1) (Homo sapiens, UniProt P21554); assay: cAMP assay at human CB1 receptor; type: cell-based; details: hCB1R; maximum measurable range 30 μM; read-out: EC50 (Potency at Human CB1 determined by cAMP Assay)
Procedure, shortened: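 Changes in intracellular cAMP measured by TR-FRET (665/615 nm) in forskolin-stimulated cells; cAMP read from a concurrent standard curve. Values normalised between forskolin and forskolin plus 1 μM CP55,940 wells. EC50 and intrinsic activity relative to CP55,940 from four-parameter nonlinear regression.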

[2] = biological target: human CB2 receptor (hCB2) (Homo sapiens, UniProt P34972); assay: cAMP assay at human CB2 receptor; type: cell-based; details: EC50 (Potency at Human CB2 determined by cAMP Assay), hCB2R; maximum measurable range 30 μM
Procedure, shortened: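 Values expressed as percent of the window between forskolin-stimulated wells and forskolin plus 1 μM CP55,940 wells.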

Male ICR mice = assay: Inhibition of acetic acid-induced writhing in mice; type: in vivo, mouse; details: dose of 10 mg/kg, subcutaneous 30 min before acetic acid
Text: 12: 525-562; Ramabadran and Bansinath (1986) Pharm. Res. 3: 263-270]. Intraperitoneal administration of dilute acetic acid solution causes a writhing behavior in mice. A writhe is defined as a contraction of the abdominal muscles accompanied by an extension of the forelimbs and elongation of the body. The number of writhes observed in the presence and absence of test compounds is counted to determine the analgesic activity of the compounds.
Male ICR mice, 20-40 grams in weight, were weighed and placed in individual observation chambers (usually a 4 L beaker) with a fine layer of rodent bedding at the bottom. To determine the activity and potency of test compounds, different doses of the compound solution or vehicle were injected subcutaneously in the back of the neck 30 minutes prior to administration of acetic acid solution. After administration of the compound or vehicle control, mice were returned to their individual observation chambers awaiting the intraperitoneal administration of acetic acid solution.
Thirty minutes later, 10 ml/kg of a 0.6% (v/v) acetic acid solution was then injected into the right lower quadrant of the abdomen. Immediately after the injection, the mouse was returned to its observation chamber and the recording of the number of writhes is begun immediately. The number of writhes was counted over a 15-min period starting from the time of acetic acid injection. Raw data were analyzed using a one-way ANOVA followed by Dunnett's post-tests.
For dose-response analysis, raw data were converted to % maximum possible effect (% MPE) using the formula: % MPE=((Wc−Wv)/(0−Wv))*100, where Wc is the number of writhes in compound-treated mice and Wv is the mean number of writhes in vehicle-treated mice. The dose which elicited 50% attenuation of hypersensitivity (ED50) can be determined using linear regression analysis. (Tallarida & Murray, 1987).

Rat L5/L6 SNL model = assay: Spinal nerve ligation (SNL) model of chronic neuropathic pain; type: in vivo; details: two-way repeated measurement ANOVA, Bonferroni post-tests
Protocol: The SNL model (Kim and Chung, 1992, Pain 50 (3):355-63) was used to induce chronic neuropathic pain in rats. Rats were anesthetized with isoflurane, the left L5 transverse process was removed, and the L5 and L6 spinal nerves were tightly ligated with 6-0 silk suture. The wound was then closed with internal sutures and external staples. Following at least seven days post SNL, baseline, post-injury and post-treatment values for non-noxious mechanical sensitivity were evaluated using eight Semmes-Weinstein filaments (Stoelting, Wood Dale, Ill., USA) with varying stiffness (0.4, 0.7, 1.2, 2.0, 3.6, 5.5, 8.5, and 15 g) according to the up-down method (Chaplan et al., 1994, J. Neurosci. Meth., 53 (1):55-63). Animals were placed on a perforated metallic platform and allowed to acclimate to their surroundings for a minimum of thirty minutes before testing.
Rat L5/L6 SNL model (n=6/group; mean±sem). Sensitivity to non-noxious mechanical stimuli was tested before and at various time points following oral administration of compound (36). The mean and standard error of the mean (SEM) were determined for the injured paw in each treatment group. Since this stimulus is normally not considered painful, significant injury-induced increases in responsiveness in this test are interpreted as a measure of mechanical allodynia.

male Sprague-Dawley rats = assay: Anti-hyperalgesia in the Complete Freund's Adjuvant (CFA) model of inflammatory pain; type: in vivo; details: PO dose 3 mg/kg; 1 hr after dosing; thermal hyperalgesia; rat; read-out: % MPE (1 hr), paw withdrawal latency after CFA injection
Protocol: The anti-hyperalgesic effects of test compounds in the Complete Freund's Adjuvant (CFA) model of inflammatory pain were determined essentially as described in U.S. Pat. No. 7,517,874 using male Sprague-Dawley rats (Hsd: Sprague-Dawley®SD®, Harlan, Indianapolis, Ind.) weighing 200-300 grams.
Test compounds were prepared in a Cremaphor vehicle mixture of 1:1:18 CremophorEL:ethanol:water. Cremophor was obtained from Sigma Chemical (St. Louis, Mo.). The vehicle mixture or vehicle mixture plus test compound were each administered orally.
Assessment of thermal hyperalgesia: Baseline and post-treatment paw withdrawal latencies to a noxious thermal stimulus were measured using a plantar test apparatus (Ugo Basile; obtained from Stoelting, Wood Dale, Ill.). This apparatus generates an infrared heat source that is linearly increasing in intensity. To avoid tissue damage, the power to the heat source was cut off after 20 seconds.
Paw withdrawal latency is defined as the time required for the rat to flick its paw away from the thermal stimulus. Ibuprofen (100 mg/kg, p.o.) was used as the positive control. Paw withdrawal latencies (in seconds) were measured before (naïve paw latency, L1) and 24 hr following (CFA-inflamed paw latency, L2) a single intraplantar injection of 0.1 mL CFA (Sigma-Aldrich, cat F5881, Mycobacterium tuberculosis 1 mg/ml).
Test compounds were administered orally 23 hours following CFA injection; i.e., 1 hour prior to thermal assessment (compound treated CFA-inflamed paw latency, L3). The mean paw withdrawal latency and standard error of the mean (SEM) was determined for the injured paws for each treatment group.
Data were expressed as percent maximum […] effect (% MPE) defined as the percentage of restoration of latency of test compound-treated CFA inflamed paw as compared to the naïve paw latency.

Chain of human CB2 receptor (hCB2) (P34972 whole entry): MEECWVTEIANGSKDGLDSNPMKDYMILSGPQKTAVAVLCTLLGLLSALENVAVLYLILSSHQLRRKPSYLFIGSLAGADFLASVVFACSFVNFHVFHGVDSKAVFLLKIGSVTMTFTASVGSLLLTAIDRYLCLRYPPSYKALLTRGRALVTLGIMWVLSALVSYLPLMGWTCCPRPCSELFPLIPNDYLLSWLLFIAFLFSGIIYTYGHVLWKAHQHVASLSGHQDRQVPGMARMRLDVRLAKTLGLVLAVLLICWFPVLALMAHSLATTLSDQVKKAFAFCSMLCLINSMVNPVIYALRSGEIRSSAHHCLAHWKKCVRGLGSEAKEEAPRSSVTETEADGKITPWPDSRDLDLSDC
Chain of human CB1 receptor (hCB1) (P21554 whole entry): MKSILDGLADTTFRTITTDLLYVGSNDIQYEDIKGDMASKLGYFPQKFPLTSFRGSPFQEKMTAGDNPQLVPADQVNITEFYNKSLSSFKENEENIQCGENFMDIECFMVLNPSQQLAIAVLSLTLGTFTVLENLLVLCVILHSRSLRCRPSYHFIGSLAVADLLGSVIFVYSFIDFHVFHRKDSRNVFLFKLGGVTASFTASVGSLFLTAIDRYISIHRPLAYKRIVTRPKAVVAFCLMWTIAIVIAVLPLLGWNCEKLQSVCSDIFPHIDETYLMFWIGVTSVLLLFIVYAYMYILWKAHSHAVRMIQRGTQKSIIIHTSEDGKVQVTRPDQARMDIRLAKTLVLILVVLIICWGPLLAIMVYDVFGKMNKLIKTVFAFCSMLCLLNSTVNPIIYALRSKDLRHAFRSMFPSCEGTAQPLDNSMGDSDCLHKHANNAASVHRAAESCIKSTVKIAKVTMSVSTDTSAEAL

| SMILES | pEC50 [1] | pEC50 [2] | reversal of the mechanical hyperalgesia induced by the acetic acid treatment (Male ICR mice) | Sensitivity to non-noxious mechanical stimuli, significance vs. vehicle-controls (Rat L5/L6 SNL model; 3 mg/kg oral) | Sensitivity to non-noxious mechanical stimuli, significance vs. vehicle-controls (Rat L5/L6 SNL model; 10 mg/kg oral) | Sensitivity to non-noxious mechanical stimuli, significance vs. vehicle-controls (Rat L5/L6 SNL model; 30 mg/kg oral) | inhibition in vivo at 3 mg/kg (male Sprague-Dawley rats) |
| --- | --- | --- | --- | --- | --- | --- | --- |
| CNC(=O)[C@@H](NC(=O)n1nc(-c2cc(F)c(F)cc2F)c2c1CCN(C)C2)C(C)(C)C [Compound 37, (S)—N-(3,3-dimethyl-1-(methylamino)-1-oxobutan-2-yl)-5-methyl-3-(2,4,5-trifluorophenyl)-4,5,6,7-tetrahydro-1H-pyrazolo[4,3-c]pyridine-1-carboxamide] | > 6.00 | > 6.00 | 100% | – | – | – | – |
| CNC(=O)[C@@H](NC(=O)n1nc(-c2ccc(F)c(F)c2)c2c1CCOC2)C(C)(C)C [Compound 28, (S)-3-(3,4-difluorophenyl)-N-(3,3-dimethyl-1-(methyl-amino)-1-oxobutan-2-yl)-6,7-dihydropyrano[4,3-c]pyrazole-1(4H)-carboxamide] | > 6.00 | > 6.00 | 100% | – | – | – | – |
| CC(C)(C)[C@H](NC(=O)n1nc(-c2ccc(F)c(F)c2)c2c1CCOC2)C(=O)NCCO [Compound 36, (S)—N-(1-(2-hydroxyethylamino)-3,3-dimethyl-1-oxobutan-2-yl)-3-(3,4-difluorophenyl)-6,7-dihydropyrano[4,3-c]pyrazole-1(4H)-carboxamide] | > 6.00 | > 6.00 | – | significant to p<0.05 vs. vehicle-controls | significant to p<0.001 vs. vehicle-controls | significant to p<0.001 vs. vehicle-controls | 44% |
| CN1CCc2c(c(-c3ccc(F)c(F)c3)nn2C(=O)N[C@H](C(=O)NCCO)C(C)(C)C)C1 [Compound 98, (S)-3-(3,4-difluorophenyl)-N-(1-(2-hydroxyethylamino)-3,3-dimethyl-1-oxobutan-2-yl)-5-methyl-4,5,6,7-tetrahydro-1H-pyrazolo[4,3-c]pyridine-1-carboxamide] | > 6.00 | > 6.00 | – | – | – | – | 36% |
| CC(C)(C)[C@H](NC(=O)n1nc(-c2cc(F)c(F)cc2F)c2c1CCOC2)C(=O)NCCO [Compound 35, (S)—N-(1-(2-hydroxyethylamino)-3,3-dimethyl-1-oxobutan-2-yl)-3-(2,4,5-trifluorophenyl)-6,7-dihydropyrano[4,3-c]pyrazole-1(4H)-carboxamide] | > 6.00 | > 6.00 | 100% | – | – | – | – |
| CC(C)(C)[C@H](NC(=O)n1nc(-c2cc(Cl)ccc2F)c2c1COCC2)C(=O)NCCO [Compound 96, (S)-3-(5-chloro-2-fluorophenyl)-N-(1-(2-hydroxyethylamino)-3,3-dimethyl-1-oxobutan-2-yl)-4,5-dihydropyrano[3,4-c]pyrazole-1(7H)-carboxamide] | > 6.00 | > 6.00 | – | – | – | – | 52% |
| CN1CCCc2c1c(-c1cc(F)ccc1F)nn2C(=O)N[C@H](C(=O)NCCO)C(C)(C)C [Compound 92, (S)-3-(2,5-difluorophenyl)-N-(1-(2-hydroxyethylamino)-3,3-dimethyl-1-oxobutan-2-yl)-4-methyl-4,5,6,7-tetrahydro-1H-pyrazolo[4,3-b]pyridine-1-carboxamide] | > 6.00 | > 6.00 | – | – | – | – | 23% |
